We go through 8 compounds from patent US6506755B2, “Thiazolidinecarboxyl acids” (Hoffmann-La Roche Inc., priority 2000, dated 2003).

Data set [1] has as its target human urokinase (uPA) binding to the specific receptor uPAR (Homo sapiens, UniProt Q03405). Put plainly: ELISA test of inhibition of uPA binding to the receptor uPAR. Conditions: compound concentration 1 μg/ml, 96-well microtitre plates. As for the experimental part:
The compound of the invention were tested (ELISA test) as human urokinase (uPA) inhibitors, which bind to the specific receptor uPAR mAk (BIO-R4), in accordance with the procedure described by Rettenberger et al. In Biol. Chem. Hoppe Seyler 376, 587-94 (1995). The assays are carried out in microtitre plates (96 wells).
(In general: An ELISA detects its analyte on a solid surface through an enzyme-linked reagent.)

Chain of human urokinase (uPA) binding to the specific receptor uPAR (Q03405 23-305 limits assumed): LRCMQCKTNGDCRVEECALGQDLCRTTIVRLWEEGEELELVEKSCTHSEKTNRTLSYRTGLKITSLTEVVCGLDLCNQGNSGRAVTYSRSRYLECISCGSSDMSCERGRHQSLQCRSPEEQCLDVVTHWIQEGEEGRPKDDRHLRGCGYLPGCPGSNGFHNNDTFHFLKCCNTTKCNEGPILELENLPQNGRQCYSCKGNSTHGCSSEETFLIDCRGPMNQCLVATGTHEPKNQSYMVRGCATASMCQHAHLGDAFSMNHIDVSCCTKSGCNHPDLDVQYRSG

Consider `O=C(O)CN1C(=O)C(=Cc2cc(OCCCc3ccccc3)ccc2OCc2ccccc2)SC1=S` [Example 13, 5-[(2-Phenylmethoxy-5-(3-phenylpropoxy)phenyl)methylene]-4-oxo-2-thioxo-3-thiazolidineacetic Acid], for which the inhibition at 1 µg/mL in data set [1] was determined as 53%. The same measure, in the same setting: as for `O=C(O)CN1C(=O)C(=Cc2cc(OCCCc3ccc(Cl)cc3)ccc2OCCCc2ccc(Cl)cc2)SC1=S` [Example 6, 5-[(2,5-Bis-(3-(4-chlorophenyl)propoxy)phenyl)methylene]-4-oxo-2-thioxo-3-thiazolidine-acetic Acid], the figure is 57%. On to `Cc1ccc(COc2ccc(C=C3SC(=S)N(CC(=O)O)C3=O)c(OCc3ccc(C)cc3)c2)cc1` [Compound 2, 5-[(2,4-Bis-(4-methylphenylmethoxy)phenyl)methylene]-4-oxo-2-thioxo-3-thiazolidineacetic acid], for which the melting point was found to be 211 °C. Further, in data set [1], the inhibition at 1 µg/mL was 48%. Take `O=C(O)CN1C(=O)C(=Cc2cc(OCCCc3ccccc3)ccc2OCc2cccs2)SC1=S` [Example 15, 5-[(2-(2-Thienylmethoxy)-5-(3-phenylpropoxy)phenyl)methylene]-4-oxo-2-thioxo-3-thiazolidineacetic Acid]: in data set [1], at 1 µg/mL the inhibition was 63%. `Cc1ccc(COc2ccc(OCc3ccc(C)cc3)c(C=C3SC(=S)N(CC(=O)O)C3=O)c2)cc1` [Example 2, 5-[(2,5-Bis-(4-methylphenylmethoxy)phenyl)methylene]-4-oxo-2-thioxo-3-thiazolidineacetic Acid] had an inhibition at 1 µg/mL in data set [1] of 68%.

On to `Cc1ccc(COc2ccc(C=C3SC(=S)N(C(C(=O)O)c4ccccc4)C3=O)c(OCc3ccc(C)cc3)c2)cc1` (stereo not drawn) [Example 22, 2-{5-[(2,4-Bis-(4-methylphenylmethoxy)phenyl)methylene]-4-oxo-2-thioxo-3-thiazolidine}-2-phenylacetic Acid], for which, in data set [1], the “% Inhibition at 1 μg/ml concentration” value stood at 60%. Still for that read-out and setting: the figure for `Cc1ccc(COc2ccc(C=C3SC(=S)N(C(Cc4ccccc4)C(=O)O)C3=O)c(OCc3ccc(C)cc3)c2)cc1` (stereo not drawn) [Example 23, 2-{5-[(2,4-Bis-(4-methylphenylmethoxy)phenyl)methylene]-4-oxo-2-thioxo-3-thiazolidine}-3-phenypropionic Acid] is 54%; for `Cc1ccc(COc2ccc(C=C3SC(=S)N(C(C(=O)O)c4ccc(Cl)cc4)C3=O)c(OCc3ccc(C)cc3)c2)cc1` (stereo not drawn) [Example 24, 2-{5-[(2,4-Bis-(4-methylphenylmethoxy)phenyl)methylene]-4-oxo-2-thioxo-3-thiazolidine}-2-(4-chlorophenyl)acetic Acid] it is 69%.

Broadly, the inhibition is the relative decrease from the control value, in per cent. A higher inhibition goes with strong suppression. The melting point is the temperature of the solid-liquid transition. The term % Inhibition denotes the change of the read-out against control, counted positive when it falls. A low value points to a weak effect.
